{"source": "patent US20240158384A1", "about": "“CB2 RECEPTOR AGONISTS” (The Board of Trustees of the Leland Stanford Junior …, priority 2020, published 2024)", "key": {"Male C57Bl6J mice [1]": {"system": "Male C57Bl6J mice", "experiment": "Amphetamine-induced hyperactivity test", "assay_type": "in vivo, mouse", "conditions": "compound i.p. 30 min before AMPH 2 mg/kg i.p., vs vehicle", "protocol": "Male C57Bl6J mice were evaluated in an activity chamber apparatus for the amphetamine-induced hyperactivity test. […] To determine the effects of Compound 22 on amphetamine-induced hyperactivity, mice were placed in the activity chamber for a 30 min baseline period. At the end of that period, mice were removed from the chamber, dosed intraperitoneally with Compound 22 (1 mg/kg, 3 mg/kg, or 10 mg/kg) or vehicle and returned to the home cage. Thirty minutes after dosing, mice were dosed (ip) with amphetamine (AMPH, 2 mg/kg) and immediately placed into the activity chamber for a one-hour post-dose session."}, "Brain protein binding": {"experiment": "Brain protein binding", "assay_type": "in vitro ADME", "conditions": "brain tissue", "protocol": "(§1) Detailed characterization data was collected for Compound 22. Primary assays were carried out according to Examples 2 and 3, while other assays were carried out according to standard methods."}, "Neurons/Microglia": {"system": "Neurons/Microglia", "experiment": "Cytotoxicity (Neurons/Microglia)", "assay_type": "cell-based", "protocol": "as §1"}, "168 GPCRs": {"system": "168 GPCRs", "experiment": "Broad screening panel gpcrMAX", "assay_type": "cell-based", "conditions": "gpcrMAX at 70 nM against 168 GPCRs", "protocol": "as §1"}, "GPR119": {"biological_target": "T1, GPR119 (Homo sapiens, UniProt Q8TDV5)", "T1 sequence (Q8TDV5 1-335)": "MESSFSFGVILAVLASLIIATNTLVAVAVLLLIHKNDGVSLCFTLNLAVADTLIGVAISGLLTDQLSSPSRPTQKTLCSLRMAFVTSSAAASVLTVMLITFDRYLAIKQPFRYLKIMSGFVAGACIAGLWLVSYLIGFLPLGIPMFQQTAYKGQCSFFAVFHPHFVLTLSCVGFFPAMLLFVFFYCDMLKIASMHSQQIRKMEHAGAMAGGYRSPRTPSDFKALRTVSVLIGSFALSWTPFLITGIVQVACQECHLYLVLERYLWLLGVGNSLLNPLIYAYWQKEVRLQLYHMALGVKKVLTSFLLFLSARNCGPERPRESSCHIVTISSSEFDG", "experiment": "Off-target activity GPR119 (agonist, antagonist, PAM modes)", "assay_type": "cell-based", "protocol": "as §1"}, "DA response to reward": {"system": "DA response to reward", "experiment": "GRAB-DA fiber photometry during operant task for sucrose reward", "assay_type": "in vivo, mouse", "conditions": "injected 30 min before task, n=3, vs vehicle", "protocol": "In a second experiment, the same mice (n=3) were trained to nose poke a dedicated port to gain access to sucrose reward. During the task, GRAB-DA was used to measure DA release in response to reward. After ˜2 weeks of training, the effect of Compound 22 vs. vehicle on the DA response to reward was examined. On the first day, either drug or vehicle was injected followed by waiting 30 min, and then recording DA during the task. The order of drug vs. vehicle was counterbalanced between mice. […] Thus, Compound 22 appears to be capable of modulating both spontaneous and reward-related DA release."}, "Male C57Bl6J mice [2]": {"system": "Male C57Bl6J mice", "experiment": "Spontaneous locomotor activity in activity chamber", "assay_type": "in vivo, mouse", "conditions": "mice, compound alone i.p., 90 minutes after dosing, vs vehicle"}, "[3]": {"experiment": "Plasma and brain pharmacokinetics in mice", "assay_type": "in vivo", "conditions": "male, C57BL/6, mouse, 10 mg/kg", "protocol": "Plasma and brain concentrations of Compounds 11, 22, 16, and 24 were determined by LC-MS/MS after IV and PO dosing in male C57BL/6 mice at 10 mg/kg. Data are shown in FIGS. 10A-10D for Compounds 11, 22, 16, and 24, respectively.\nas §1"}, "Caco-2": {"system": "Caco-2", "experiment": "In vitro permeability Caco-2", "assay_type": "in vitro ADME", "protocol": "as §1"}, "GPR55": {"biological_target": "GPR55 (Homo sapiens, UniProt Q9Y2T6)", "sequence (Q9Y2T6 whole entry, species assumed)": "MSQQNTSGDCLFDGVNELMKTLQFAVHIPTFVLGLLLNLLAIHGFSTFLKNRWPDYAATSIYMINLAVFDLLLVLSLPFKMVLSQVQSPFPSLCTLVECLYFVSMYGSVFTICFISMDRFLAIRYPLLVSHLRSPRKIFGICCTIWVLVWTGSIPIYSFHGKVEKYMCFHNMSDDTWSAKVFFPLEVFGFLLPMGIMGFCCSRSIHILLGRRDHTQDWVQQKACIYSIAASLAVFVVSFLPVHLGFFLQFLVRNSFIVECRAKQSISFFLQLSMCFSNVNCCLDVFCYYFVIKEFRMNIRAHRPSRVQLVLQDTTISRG", "experiment": "Off-target activity GPR55 (agonist, antagonist, PAM modes)", "assay_type": "cell-based", "protocol": "as §1"}, "Plasma protein binding": {"experiment": "Plasma protein binding", "assay_type": "in vitro ADME", "protocol": "as §1"}, "hERG": {"biological_target": "hERG (Homo sapiens, UniProt Q12809)", "sequence (Q12809 whole entry)": "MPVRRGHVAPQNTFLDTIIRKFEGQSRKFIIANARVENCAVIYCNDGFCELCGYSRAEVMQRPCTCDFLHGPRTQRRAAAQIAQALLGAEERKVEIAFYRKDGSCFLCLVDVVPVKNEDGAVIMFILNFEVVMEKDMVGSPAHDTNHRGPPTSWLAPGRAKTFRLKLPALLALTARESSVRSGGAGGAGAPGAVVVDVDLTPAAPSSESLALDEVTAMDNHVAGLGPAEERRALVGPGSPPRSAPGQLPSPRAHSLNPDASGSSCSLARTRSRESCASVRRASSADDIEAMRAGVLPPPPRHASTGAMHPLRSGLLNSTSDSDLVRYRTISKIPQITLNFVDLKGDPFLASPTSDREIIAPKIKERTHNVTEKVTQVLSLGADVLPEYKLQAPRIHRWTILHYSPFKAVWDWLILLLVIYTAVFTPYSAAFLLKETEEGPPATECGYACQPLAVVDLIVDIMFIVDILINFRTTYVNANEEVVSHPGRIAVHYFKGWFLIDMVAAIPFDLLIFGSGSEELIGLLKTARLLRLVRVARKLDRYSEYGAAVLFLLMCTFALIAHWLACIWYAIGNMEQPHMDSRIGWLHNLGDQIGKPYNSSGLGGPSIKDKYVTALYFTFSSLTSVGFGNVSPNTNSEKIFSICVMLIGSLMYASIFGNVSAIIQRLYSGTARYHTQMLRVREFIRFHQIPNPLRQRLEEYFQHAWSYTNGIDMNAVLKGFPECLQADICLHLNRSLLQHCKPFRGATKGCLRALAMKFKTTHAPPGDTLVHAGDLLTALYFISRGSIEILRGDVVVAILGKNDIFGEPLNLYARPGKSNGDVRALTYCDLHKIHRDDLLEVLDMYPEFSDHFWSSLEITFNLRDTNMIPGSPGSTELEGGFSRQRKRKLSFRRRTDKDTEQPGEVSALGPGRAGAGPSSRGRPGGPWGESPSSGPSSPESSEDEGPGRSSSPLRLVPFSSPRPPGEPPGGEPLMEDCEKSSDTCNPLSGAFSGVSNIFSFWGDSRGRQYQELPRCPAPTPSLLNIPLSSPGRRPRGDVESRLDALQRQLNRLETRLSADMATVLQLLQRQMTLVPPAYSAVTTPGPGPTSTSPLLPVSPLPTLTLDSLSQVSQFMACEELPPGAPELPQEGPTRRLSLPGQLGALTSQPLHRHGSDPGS", "experiment": "hERG activity", "protocol": "as §1"}, "[4]": {"system": "extracellular dopamine (DA) in nucleus accumbens", "experiment": "Microdialysis of nucleus accumbens, extracellular dopamine after AMPH", "assay_type": "in vivo, mouse", "conditions": "10 mg/kg i.p., 40 min before AMPH 2 mg/kg i.p.; n=1/group", "protocol": "For this study, a probe was implanted into the nucleus accumbens (NAc) (FIG. 11A). Following baseline measurements, mice were dosed with vehicle or Compound 22 (10 mg/kg, i.p) followed 40 min later by a single dose of AMPH (2 mg/kg, i.p.). Samples were collected for 2 hr post-dosing. Extracellular dopamine (DA) levels in the dialysate were quantified by HPLC with electrochemical detection (FIG. 11B). […] Compound 22 modulates both spontaneous and reward-related DA release. To confirm these findings in parallel experiments, GPCR-activation based-DA (GRAB-DA) was used, which is a human D2R-GFP chimera sensor that produces fluorescence changes reliably and with sub-second kinetics in response to extracellular DA concentration changes in behaving animals (Sun et al. Cell 2018; 174(2):481-96.e19). Mice were injected with an adeno-associated virus (AAV) carrying GRAB-DA into the (NAc) (FIG. 11C) and allowed to recover for −2 weeks before fiber photometry experiments were performed. In the first pilot experiment, baseline DA release were recorded for 5 min before mice (n=3) were injected with either Compound 22 or vehicle and then recording was continued for 45 min. The rate of spontaneous DA transients was compared in the pre-injection (0-5 min) vs post-injection (35-50 min) periods; there was a significant time x drug interaction: F(1,4)=11.91, P=0.026."}, "Aqueous solubility": {"experiment": "Aqueous solubility", "assay_type": "physicochemical", "conditions": "aqueous medium (not further specified)", "protocol": "as §1"}, "[5]": {"experiment": "Mouse hepatocytes metabolic stability", "assay_type": "in vitro ADME", "protocol": "as §1"}}, "note": "Entries after “also recorded” stand apart in the source; their conditions may differ.", "data": [{"smiles": "CC(C)(CO)c1cc(NC(=O)N2CCCN2c2ccc(C(F)(F)F)cc2)no1", "note": "[Compound 22, N-(5-(1-hydroxy-2-methylpropan-2-yl)isoxazol-3-yl)-2-(4-(trifluoromethyl)phenyl)pyrazolidine-1-carboxamide]", "values": [{"measurement": "Amphetamine-induced hyperactivity", "setting": "Male C57Bl6J mice [1]", "result": "reduces the hyperactivity induced by AMPH compared to vehicle controls, with significant reduction at 10 mg/kg; also recorded: able to reduce hyperactivity at doses as low as 0.1 mg/kg, i.p"}, {"measurement": "fraction unbound", "setting": "Brain protein binding", "result": 0.0198}, {"measurement": "Cytotoxicity (Neurons/Microglia)", "setting": "Neurons/Microglia", "result": "not toxic"}, {"measurement": "Activity in broad screening panel", "setting": "168 GPCRs", "result": "No significant off"}, {"measurement": "EC50", "setting": "GPR119", "result": "> 10", "unit": "µM"}, {"measurement": "IC50", "setting": "GPR119", "result": "> 10", "unit": "µM"}, {"measurement": "Ability to perform task and maximum reward-induced DA release", "setting": "DA response to reward", "result": "not a significant effect on the ability of mice to perform this task or the maximum reward-induced DA release"}, {"measurement": "DA response curve to sucrose reward", "setting": "DA response to reward", "result": "appeared to widen the DA response curve"}, {"measurement": "Distance moved / spontaneous locomotor activity", "setting": "Male C57Bl6J mice [2]", "result": "do not exhibit significantly different distance moved compared to the vehicle"}, {"measurement": "Kp at 24 h", "setting": "[3]; in vivo, Via oral administration, 3 mice, at 24 h, read-out: Brain to plasma ratio", "result": 0.97}, {"measurement": "bioavailability", "setting": "[3]; plasma, Oral bioavailability", "result": 100, "unit": "%"}, {"measurement": "melting point", "result": "142 to 146", "unit": "°C"}, {"measurement": "In vitro permeability", "setting": "Caco-2", "result": "High"}, {"measurement": "EC50", "setting": "GPR55", "result": "> 10", "unit": "µM"}, {"measurement": "IC50", "setting": "GPR55", "result": "> 10", "unit": "µM"}, {"measurement": "fraction unbound", "setting": "Plasma protein binding", "result": 0.0631}, {"measurement": "IC50", "setting": "hERG", "result": "> 10", "unit": "µM"}, {"measurement": "Extracellular DA release after AMPH dosing", "setting": "[4]", "result": "reduced extracellular DA release after AMPH dosing"}, {"measurement": "solubility", "setting": "Aqueous solubility", "result": 17.4, "unit": "µg/mL"}, {"measurement": "Mouse hepatocytes metabolic stability, clearance class", "setting": "[5]", "result": "Medium clearance"}, {"measurement": "half-life", "setting": "[5]; read-out: Mouse hepatocytes metabolic stability t ½", "result": "> 2", "unit": "h"}]}]}
